Entries after “also recorded” stand apart in the source; their conditions may differ.
Key:
[1] = test system: spontaneous recurrent epileptic seizures (pilocarpine model of epilepsy); test: pilocarpine model of epilepsy in rats: video monitoring of spontaneous epileptic seizures after status epilepticus; type: in vivo, Wistar rats
Text: The current invention was based on an experimental model of epilepsy in which in rats the induction of a brain lesion is accomplished through the administration of pilocarpine, a cholinergic agonist. According to the original description of this model, approximately 20-30 days after pilocarpine injection in either rats or mice, there is the onset of spontaneous recurrent epileptic seizures (Turski W A, Cavalheiro E A, Schwarz M, Czuczwar S J, Kleinrok Z and Turski L. Limbic seizures produced by pilocarpine in rats: behavioural, electroencephalographic and neuropathological study. Behavioral Brain Research, 9:315-335, 1983; Mello L E A M, Cavalheiro E A, Babb T L, Kupfer W R, Pretorius J K, Tan A M and Finch D M. Circuit mechanisms of seizures in the pilocarpine model of chronic epilepsy: cell loss and mossy fiber sprouting. Epilepsia 34:985-995, 1993). Due to its special features the pilocarpine model is currently one of the 3 most widely used experimental models in the study of epilepsy.
(§1) Biperiden, together with atropine, is a classic […] and is known to block muscarinic receptors. These drugs are known by their abilities in blocking the cholinergic transmission which is otherwise mediated through muscarinic receptors. For our experiments we used Wistar, adult, male, rats which were maintained under controlled conditions of temperature, light/dark cycles and kept in groups of up to 6 animals in polypropilene boxes with free access to tap water and rat chow pellets. Rats were subject to the intraperitoneal administration of pilocarpine in a dose of 320 mg/Kg for the induction of status epilepticus.
As expected, the systemic administration of pilocarpine lead to a sequence of behavioral alterations such as akinesia, body tremor and/or myoclonic jerks of the head and oro-facial stereotyped movements accompanied by profuse salivation. Status epilepticus, a condition of uninterrupt epileptic seizure, developed on average 19±5 min after the injection of pilocarpine. Three hours after the onset of status epilepticus the animals in the experimental group (n=10) were intraperitoneally injected with the first initial dose of biperiden (8 mg/kg). This dose represents the concentration needed to provoke memory impairments in rodents, (Roldan G, Bolanos-Badillo E, Gonzales-Sanches H, Quirarte G L and Prado-Alcala R A J W. Selective M1 muscarinic receptor antagonists disrupt memory consolidation of inhibitory avoidance in rats. Neurosci. Lett., 230:93-6, 1997).
For the animals in the control group (n=6), […] after the onset of status epileticus, administration of sterile saline solution (0.9% NaCl), rather than biperiden, was started with a similar protocol.
In the pilocarpine model of epilepsy, a few weeks after the administration of pilocarpine and the induction of status epilepticus, the animals develop spontaneous epileptic seizures which recur for as long as the animal are allowed to live. It is assumed that such epileptic condition adequately mimics some types of epileptic seizures in humans and may closely reflect the sequence of events that take place in post-traumatic epilepsies.
Approximately 15 to 20 days after the induction of status epilepticus, the reported duration of the latent period for the onset of spontaneous seizures, monitoring of the behavioral seizures with a videocamera for approximately 12 hours/week was initiated. Based on our initial hypothesis, that the experimental group (treated with biperiden) would either have a substantial reduction or would show no spontaneous epileptic seizures, and therefore to avoid a false negative result, the sampling rate for video monitoring of these animals was performed for 24 hours/week. Animals were video monitored for approximately 120 days after the induction of status epilepticus. The recorded video tapes were routinely assessed in a 29 inches wide television screen and the seizures observed for each animal were recorded.

[2] = species and source not stated; cited from earlier work
[3] = test system: status epilepticus; test: induction of status epilepticus by systemic pilocarpine; type: in vivo, Wistar rats; settings: pilocarpine 320 mg/Kg intraperitoneal; average
Text: as §1
As expected, the systemic administration of pilocarpine lead to a sequence of behavioral alterations such as akinesia, body tremor and/or myoclonic jerks of the head and oro-facial stereotyped movements accompanied by profuse salivation. Status epilepticus, a condition of uninterrupt epileptic seizure, developed on average 19±5 min after the injection of pilocarpine. Three hours after the onset of status epilepticus the animals in the experimental group (n=10) were intraperitoneally injected with the first initial dose of biperiden (8 mg/kg). […]

## OC(CCN1CCCCC1)(c1ccccc1)C1CC2C=CC1C2 (stereo not drawn) [biperiden]
[1]; biperiden 8 mg/kg i.p. every 8 hours for 10 days, started 3 h after onset of status epilepticus, n=10, mean ± standard deviation, p < 0.03 vs control (Mann-Whitney)
  Length of the latent period for the onset of the first recorded spontaneous epileptic seizure, Latency: 6.0±1.1 weeks
[1]; biperiden 8 mg/kg i.p. every 8 hours for 10 days, n=10, monitored about 120 days, mean ± standard deviation, p < 0.02 vs control (Mann-Whitney)
  Frequency of spontaneous epileptic seizures, Spontaneous seizures/h: 0.0202 ± 0.0047 seizures/h
[1]; compared to animals not treated with biperiden
  frequency of epileptic seizures in animals that developed seizures (in words): significantly lesser frequency
[1]; control (saline) vs experimental (treated with biperiden)
  mean frequency of spontaneous epileptic seizures of the control group relative to the experimental group: 2 times
[1]; experimental (biperiden) vs control
  qualitative or quantitative nature of each individual seizure, difference between the two groups: no differences
[1]; experimental (biperiden) vs control (saline)
  mean latency of the experimental group relative to the control group: two times greater; also recorded: twice that of the control group
[1]; prophylactic use after pilocarpine lesion
  onset of spontaneous recurrent seizures, i.e., epilepsy (in words): significantly retarded or even suppressed
[2]
  half-life: 24 ± 1.2 h

## CC[C@@H]1C(=O)OC[C@@H]1Cc1cncn1C [pilocarpine]
[3]
  time to development of status epilepticus after injection: 19 ± 5 min
